From patent US12558362B2, “Use of cannabidiol in the treatment of seizures associated with rett syndrome” (JAZZ PHARMACEUTICALS RESEARCH UK LIMITED, priority 2020, dated 2026)
Entries after “also recorded” stand apart in the source; their conditions may differ.

What was measured:
[1] = tested on: patients with Dravet and Lennox-Gastaut syndrome; conditions: cited from earlier work
[2] = tested on: patients diagnosed with Rett syndrome; experiment: Open label, expanded-access program of botanically derived purified CBD: seizure frequency recorded in caregiver diaries relative to baseline; assay type: in vivo, human; design: Reduction in tonic seizures over the treatment period / Reduction in focal seizures with impairment over the treatment period / Reduction in absence seizures over the treatment period: concentration or dose not given beside the values; Seizure frequency, tonic / Seizure frequency, tonic-clonic / Seizure frequency, absence / Seizure frequency, focal with impairment: unit not given here; conditions: for Seizure frequency, focal with impairment: baseline 3.2
Method: Subjects were required to be on one or more AEDs at stable doses for a minimum of two weeks prior to baseline and to have stable vagus nerve stimulation (VNS) settings and ketogenic diet ratios for a minimum of four weeks prior to baseline.
Patients were administered botanically derived purified CBD in a 100 mg/mL sesame oil-based solution which was titrated to an initial dose of between 5 and 25 milligrams per kilogram per day (mg/kg/day) in two divided doses. Doses were then increased weekly by 5 mg/kg/day to a goal of 25 mg/kg/day where required.
A maximum dose of 50 mg/kg/day could be utilised for patients who were tolerating the medication but had not achieved seizure control; these patients had further weekly titration by 5 mg/kg/day.
There were three patients in this study, and each received CBD for various durations of time. Modifications were made to concomitant AEDs as per clinical indication.
Seizure frequency, intensity, and duration were recorded by caregivers in a diary during a baseline period of at least 28 days. Changes in seizure frequency relative to baseline were calculated after at least 2 weeks and at defined timepoints of treatment.
Patients may be defined as responders if they had more than 50% reduction in seizure frequency compared to baseline. The percent change in seizure frequency was calculated as follows: […]
The percent change of seizure frequency may be calculated for any time interval where seizure number has been recorded. For the purpose of this example the percent change of seizure frequency for the end of the treatment period was calculated as follows:
[formula] Results Patient Description

[3] = tested on: mouse model of Rett syndrome; conditions: cited from earlier work
[4] = Patient 2, treated for 84 weeks
[5] = printed Patient 2 (follows Table 2C of Patient 3), treated for 36 weeks

## C=C(C)[C@@H]1CCC(C)=C[C@H]1c1c(O)cc(CCCCC)cc1O [CBD, cannabidiol]
[1]
  Efficacy in randomized control trials: showed efficacy
[2]; Patient 1, 2 weeks, CBD 5.0 mg/kg/day, baseline 10.0
  Seizure frequency, tonic-clonic: 26.0
[2]; Patient 1, 2 weeks, CBD 5.0 mg/kg/day, baseline 22.4
  Seizure frequency, tonic: 22.0
[2]; Patient 1, 4 weeks, CBD 10.0 mg/kg/day, baseline 10.0
  Seizure frequency, tonic-clonic: 21.4
[2]; Patient 1, 4 weeks, CBD 10.0 mg/kg/day, baseline 22.4
  Seizure frequency, tonic: 38.0
[2]; Patient 1, 8 weeks, CBD 20.0 mg/kg/day, baseline 10.0
  Seizure frequency, tonic-clonic: 14.0
[2]; Patient 1, 8 weeks, CBD 20.0 mg/kg/day, baseline 22.4
  Seizure frequency, tonic: 28.0
[2]; Patient 1, 12 weeks, CBD 25.0 mg/kg/day, baseline 10.0
  Seizure frequency, tonic-clonic: 12.0
[2]; Patient 1, 12 weeks, CBD 25.0 mg/kg/day, baseline 22.4
  Seizure frequency, tonic: 28.0
[2]; Patient 1, 16 weeks, CBD 15.0 mg/kg/day, baseline 10.0
  Seizure frequency, tonic-clonic: 22.0
[2]; Patient 1, 16 weeks, CBD 15.0 mg/kg/day, baseline 22.4
  Seizure frequency, tonic: 14.0
[2]; Patient 1, 24 weeks, CBD 15.0 mg/kg/day, baseline 10.0
  Seizure frequency, tonic-clonic: 12.0
[2]; Patient 1, 24 weeks, CBD 15.0 mg/kg/day, baseline 22.4
  Seizure frequency, tonic: 8.0
[2]; Patient 1, 36 weeks, CBD 15.0 mg/kg/day, baseline 10.0
  Seizure frequency, tonic-clonic: 20.0
[2]; Patient 1, 36 weeks, CBD 15.0 mg/kg/day, baseline 22.4
  Seizure frequency, tonic: 20.0
[2]; Patient 1, treated for 36 weeks
  Reduction in tonic seizures over the treatment period: 10.7%
[2]; Patient 2, 8 weeks, CBD 20.0 mg/kg/day, baseline 0
  Seizure frequency, absence: 1.0
[2]; Patient 2, 8 weeks, CBD 20.0 mg/kg/day
  Seizure frequency, focal with impairment: 0
[2]; Patient 2, 8 weeks, CBD 20.0 mg/kg/day, baseline 5.6
  Seizure frequency, tonic: 3.0
[2]; Patient 2, 12 weeks, CBD 20.0 mg/kg/day, baseline 0
  Seizure frequency, absence: 0
[2]; Patient 2, 12 weeks, CBD 20.0 mg/kg/day
  Seizure frequency, focal with impairment: 0
[2]; Patient 2, 12 weeks, CBD 20.0 mg/kg/day, baseline 5.6
  Seizure frequency, tonic: 1.6
[2]; Patient 2, 16 weeks, CBD 20.0 mg/kg/day, baseline 0
  Seizure frequency, absence: 0
[2]; Patient 2, 16 weeks, CBD 20.0 mg/kg/day
  Seizure frequency, focal with impairment: 0
[2]; Patient 2, 16 weeks, CBD 20.0 mg/kg/day, baseline 5.6
  Seizure frequency, tonic: 2.0
[2]; Patient 2, 24 weeks, CBD 20.0 mg/kg/day, baseline 0
  Seizure frequency, absence: 0.8
[2]; Patient 2, 24 weeks, CBD 20.0 mg/kg/day
  Seizure frequency, focal with impairment: 0
[2]; Patient 2, 24 weeks, CBD 20.0 mg/kg/day, baseline 5.6
  Seizure frequency, tonic: 0.4
[2]; Patient 2, 36 weeks, CBD 20.0 mg/kg/day, baseline 0
  Seizure frequency, absence: 0.4
[2]; Patient 2, 36 weeks, CBD 20.0 mg/kg/day
  Seizure frequency, focal with impairment: 0
[2]; Patient 2, 36 weeks, CBD 20.0 mg/kg/day, baseline 5.6
  Seizure frequency, tonic: 0.4
[2]; Patient 2, 48 weeks, CBD 20.0 mg/kg/day, baseline 0
  Seizure frequency, absence: 0
[2]; Patient 2, 48 weeks, CBD 20.0 mg/kg/day
  Seizure frequency, focal with impairment: 0
[2]; Patient 2, 48 weeks, CBD 20.0 mg/kg/day, baseline 5.6
  Seizure frequency, tonic: 0.8
[2]; Patient 2, 60 weeks, CBD 20.0 mg/kg/day, baseline 0
  Seizure frequency, absence: 0
[2]; Patient 2, 60 weeks, CBD 20.0 mg/kg/day
  Seizure frequency, focal with impairment: 0
[2]; Patient 2, 60 weeks, CBD 20.0 mg/kg/day, baseline 5.6
  Seizure frequency, tonic: 1.4
[2]; Patient 2, 72 weeks, CBD 21.3 mg/kg/day, baseline 0
  Seizure frequency, absence: 0.4
[2]; Patient 2, 72 weeks, CBD 21.3 mg/kg/day
  Seizure frequency, focal with impairment: 0
[2]; Patient 2, 72 weeks, CBD 21.3 mg/kg/day, baseline 5.6
  Seizure frequency, tonic: 0.4
[2]; Patient 2, 84 weeks, CBD 20.0 mg/kg/day, baseline 0
  Seizure frequency, absence: 0.4
[2]; Patient 2, 84 weeks, CBD 20.0 mg/kg/day
  Seizure frequency, focal with impairment: 0
[2]; Patient 2, 84 weeks, CBD 20.0 mg/kg/day, baseline 5.6
  Seizure frequency, tonic: 0.4
[2]; [4]
  Reduction in focal seizures with impairment over the treatment period: 100%
  Reduction in tonic seizures over the treatment period: 92.9%
[2]; Patient 3, 4 weeks, CBD 25.0 mg/kg/day, baseline 4.0
  Seizure frequency, tonic-clonic: 4.0
[2]; Patient 3, 4 weeks, CBD 25.0 mg/kg/day, baseline 8.0
  Seizure frequency, absence: 1.0
[2]; Patient 3, 4 weeks, CBD 25.0 mg/kg/day, baseline 16.0
  Seizure frequency, tonic: 2.0
[2]; Patient 3, 12 weeks, CBD 25.0 mg/kg/day, baseline 4.0
  Seizure frequency, tonic-clonic: 4.0
[2]; Patient 3, 12 weeks, CBD 25.0 mg/kg/day, baseline 8.0
  Seizure frequency, absence: 0
[2]; Patient 3, 12 weeks, CBD 25.0 mg/kg/day, baseline 16.0
  Seizure frequency, tonic: 1.0
[2]; Patient 3, 16 weeks, CBD 25.0 mg/kg/day, baseline 4.0
  Seizure frequency, tonic-clonic: 6.0
[2]; Patient 3, 16 weeks, CBD 25.0 mg/kg/day, baseline 8.0
  Seizure frequency, absence: 0
[2]; Patient 3, 16 weeks, CBD 25.0 mg/kg/day, baseline 16.0
  Seizure frequency, tonic: 4.0
[2]; Patient 3, 24 weeks, CBD 25.0 mg/kg/day, baseline 4.0
  Seizure frequency, tonic-clonic: 8.0
[2]; Patient 3, 24 weeks, CBD 25.0 mg/kg/day, baseline 8.0
  Seizure frequency, absence: 4.0
[2]; Patient 3, 24 weeks, CBD 25.0 mg/kg/day, baseline 16.0
  Seizure frequency, tonic: 0
[2]; Patient 3, 36 weeks, CBD 25.0 mg/kg/day, baseline 4.0
  Seizure frequency, tonic-clonic: 6.0
[2]; Patient 3, 36 weeks, CBD 25.0 mg/kg/day, baseline 8.0
  Seizure frequency, absence: 1.0
[2]; Patient 3, 36 weeks, CBD 25.0 mg/kg/day, baseline 16.0
  Seizure frequency, tonic: 4.0
[2]; all three patients, range over patients and seizure types
  Reductions in seizures over the period of treatment, overall: 10.7-100.0%
[2]; conclusion, all patients
  Decrease of seizure frequency rates: tonic, tonic-clonic, absence and focal seizures with impairment: 11-100.0%
[2]; one patient (patient 2)
  Seizure freedom, focal seizures with impairment: became seizure free of focal seizures with impairment
[2]; [5]
  Reduction in absence seizures over the treatment period: 87.5%
  Reduction in tonic seizures over the treatment period: 75%
[2]; range over the three patients
  Reduction in tonic seizures, all three patients: 11-93%
[2]; summary statement of the program
  Reduction of seizures associated with Rett syndrome: significantly reduce the number of seizures; also recorded: significant reduction in specific seizure types
[2]; three patients with Rett syndrome
  Effect on frequency of tonic, absence and focal seizures with impairment: effective in reducing the frequency

## C=C(C)[C@@H]1CCC(C)=C[C@H]1c1c(O)cc(CCC)cc1O [CBDV, cannabidivarin]
[3]
  Behavioural alterations: rescue the behavioural alterations
